Results on 23 compounds are retold here after ChEMBL document CHEMBL1201862, “PubChem BioAssay data set” (2004).

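In this assay, cells in 96-well plates receive the compound at five concentrations for 48 hours. Endpoints are linearly interpolated between the surrounding concentrations. Here, GI50 denotes the concentration required for 50% inhibition of growth.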 Active and inactive are the calls of the source. No stated cut-off is given here; in the data, active = GI50 up to about 1.1 µM and inactive = higher.

Common to all, as to assay: growth of human tumour cells (NCI), 48 h
The subject of assay [1] is DLD-1.
Assay [2] concerns DMS-114.
The subject of assay [3] is DMS-273.
Assay [4] relates to KM-20L2.
In assay [5] the test system is M19-MEL.
The test system of assay [6] is SNB-78.
For assay [7], the system named is XF498.
For assay [8], the system named is HOP-18.
Assay [9] deals with RXF 631.

`O=c1c2cccnc2ncn1CCN1CCCCC1`: the GI50 in assay [1], in assay [2], in [3], in assay [4], in [5] and in assay [6] was > 100 µM (inactive) each time. The GI50 in [7] was > 100 µM (inactive).

On to `CC1=C(/C=C/C(C)=C/C=C/C(C)=C/C(=O)O)C(C)(C)CCC1` [TRETINOIN], for which the GI50 in assay [1], in [2], in assay [3], in assay [8], in assay [4] and in assay [5] was > 100 µM (inactive) in each case. Besides, the GI50 in assay [7] is > 100 µM (inactive).

As to `Nc1ccn(C2CCC(CO)O2)c(=O)n1` (centres undefined), the GI50 in [1] is > 100 µM (inactive); in assay [2], > 100 µM (inactive); in [3] it was > 100 µM (inactive); in assay [8], 98.9 µM (inactive); in assay [4], > 100 µM (inactive); in [5], > 100 µM (inactive). For the same compound, the figures for the GI50 in assay [6] and in assay [7] were > 65.6 µM (inactive) and > 100 µM (inactive), respectively.

As to `Cc1ccc(O)c(C(=O)CCCC(=O)c2cc(C)ccc2O)c1`, the GI50 is > 100 µM (inactive) in [1]; 32.9 µM (inactive) in [2]; 55.3 µM (inactive) in assay [3]; > 100 µM (inactive) in assay [8]; > 100 µM (inactive) in assay [4]; > 100 µM (inactive) in [5]. The values for the GI50 in assay [6] and in assay [7] were 55.8 µM (inactive) and > 100 µM (inactive), respectively.

As to `CC(C(=O)c1ccc(O)cc1)C1(O)C(=O)Nc2c(Cl)cc(Cl)cc21` (centres undefined), the GI50 was > 89.7 µM (inactive) in assay [1]; 13.9 µM (inactive) in assay [2]; 70.5 µM (inactive) in assay [3]; > 92.5 µM (inactive) in [4]; 20.6 µM (inactive) in assay [5]; > 84.9 µM (inactive) in assay [9]. Further, the GI50 in [6] is 46.8 µM (inactive); in assay [7], 23.6 µM (inactive).

As to `COc1cc(CNc2cnc3cc(N)ccc3n2)cc(OC)c1OC`, the GI50 in assay [1] is 58.1 µM (inactive); in [2] it was 18.8 µM (inactive); in [3], 0.191 µM (active); in assay [8], 78.5 µM (inactive); in assay [4], 14 µM (inactive); in [5], 16.5 µM (inactive). Further, in [7], the GI50 is 22.6 µM (inactive).

Take `CC1NS(=O)(=O)N(C)C1=O` (centres undefined): the GI50 in assay [1], in [2], in assay [3], in assay [5], in [9] and in [6] was > 100 µM (inactive) in each case. For the same compound, in [7], the GI50 is > 100 µM (inactive).

Consider `CCOC(=O)C=C1CCC2(CC1)OCCO2`, for which the GI50 in assay [1], in assay [8], in assay [4], in assay [5], in [9] and in [7] was > 100 µM (inactive) throughout.

As for `Cc1ccc(C2(O)CC(c3ccc([N+](=O)[O-])o3)=NN2C(=O)COc2ccccc2Cl)cc1` (centres undefined), the GI50 in assay [1] was 6.08 µM (inactive); in assay [2] it was 12.8 µM (inactive); in [3] it was 12.9 µM (inactive); in assay [8], 20.6 µM (inactive); in [4], 8.65 µM (inactive); in assay [5], 3.69 µM (inactive). For the same compound, the GI50 is 6.87 µM (inactive) in assay [9], 42.6 µM (inactive) in assay [6] and 16.9 µM (inactive) in assay [7].

For `CCCCCCCCCC1C(C)c2c([nH]c3ccccc23)C2C(=O)N(c3ccccc3)C(=O)C21` (centres undefined), the GI50 in assay [1] is 14.9 µM (inactive); in assay [2] it was 14.7 µM (inactive); in [3], 12.5 µM (inactive); in assay [4], 12.1 µM (inactive); in [9], 3.05 µM (inactive); in assay [6] it was 21.4 µM (inactive). Besides, the GI50 in assay [7] was 11.2 µM (inactive).

Regarding `C#CCOCn1cnc2c(Sc3c([N+](=O)[O-])ncn3C)ncnc21`, the GI50 in assay [1], in assay [2], in assay [3], in assay [4], in assay [5] and in assay [9] was > 100 µM (inactive) each time. Besides, the GI50 in [7] was > 100 µM (inactive).

On to `CC12OC3CC(O1)C1(C=O)C4CCC5(C)C(c6ccc(=O)oc6)CCC5(O)C4CCC1(C3)O2` (centres undefined), for which the GI50 is 0.0995 µM (active) in assay [1]; 0.0414 µM (active) in assay [2]; 0.0519 µM (active) in [3]; 0.252 µM (active) in assay [8]; 0.298 µM (active) in [4]; 0.258 µM (active) in [5]. In [6], the GI50 was 0.131 µM (active).

With `COC(=O)/C(C#N)=C1\CCc2ccccc21`, the GI50 in assay [1], in [2], in assay [3], in assay [4], in assay [5] and in [7] was > 100 µM (inactive) throughout.

With `COC(=O)C(=C\Sc1ccccc1)/C=C/C(=O)OC(C)(C)C`, the GI50 was 2.62 µM (inactive) in [1]; 11.2 µM (inactive) in assay [2]; 11.9 µM (inactive) in assay [3]; 16.2 µM (inactive) in assay [8]; 17.1 µM (inactive) in assay [4]; 10.8 µM (inactive) in assay [5]. The GI50 was 15.1 µM (inactive) in assay [6] and 15 µM (inactive) in assay [7].

As for `Cn1ccc(=NS(=O)(=O)c2ccccc2)cc1`, the GI50 in assay [1] was > 100 µM (inactive); in [2], > 100 µM (inactive); in assay [3], > 100 µM (inactive); in assay [8], 85.3 µM (inactive); in assay [4], > 100 µM (inactive); in assay [5] it was > 100 µM (inactive). Besides, the GI50 in [9], in [6] and in assay [7] was > 100 µM (inactive) each time.

As for `Nc1nc(O)c2c(ncn2CCO)n1`, the GI50 in assay [1], in [3], in assay [8], in assay [4], in assay [5] and in [6] was > 100 µM (inactive) each time. Further, in [7], the GI50 was > 100 µM (inactive).

Regarding `NC1=NS(=O)(=O)Nc2nc(-c3ccccc3)c(-c3ccccc3)nc21`, the GI50 in [1], in assay [3], in assay [8], in [4], in assay [5] and in assay [6] was > 100 µM (inactive) each time. Further, the GI50 in [7] is > 100 µM (inactive).

For the compound `N#Cc1c2nc3ccccc3nc2n2ccccc12`, the GI50 in assay [1], in [2], in assay [3], in assay [4], in assay [5] and in [6] was > 100 µM (inactive) each time. Also, the GI50 in assay [7] is > 100 µM (inactive).

Regarding `COc1ccc2nc3c(C(=O)NCCN(C)C)cccc3nc2c1`, the GI50 in assay [2] was 5.82 µM (inactive); in assay [3], 4.42 µM (inactive); in [8] it was 27.7 µM (inactive); in assay [5], 5.05 µM (inactive); in [6], 7.16 µM (inactive).

Turning to `O=C1c2cccc(O)c2C(=O)c2cccc(O)c21` [ANTHRARUFIN], the GI50 in assay [1], in assay [3], in assay [5], in assay [6] and in [7] was > 100 µM (inactive) each time.

Consider `CC(C)(Br)C(=O)C(Br)Br`, for which the GI50 was 1.77 µM (inactive) in assay [1]; 5.36 µM (inactive) in assay [2]; 12.6 µM (inactive) in assay [3]; 18 µM (inactive) in assay [4]; 6.01 µM (inactive) in assay [5]; 14 µM (inactive) in assay [9]. Also, the GI50 was 5.06 µM (inactive) in assay [6] and 11.6 µM (inactive) in assay [7].

In the case of `CCOC(=O)C(=O)NNc1nc2c(s1)C(=O)c1ccccc1C2=O`, the GI50 in [1] is 5.04 µM (inactive); in assay [2], 1.76 µM (inactive); in [3] it was 4.57 µM (inactive); in assay [8], 2.24 µM (inactive); in assay [4], 18.1 µM (inactive); in assay [5], 0.544 µM (active). In addition, the figures for the GI50 in assay [9], in [6] and in assay [7] were 11.2 µM (inactive), 2.54 µM (inactive) and 2.09 µM (inactive), respectively.

`Cc1cc(NCCCCCCCCNc2cc(C)nc3cc(N)ccc23)c2ccc(N)cc2n1`: the GI50 in assay [1] is 16.9 µM (inactive); in assay [2], 3.35 µM (inactive); in assay [3], 4.56 µM (inactive); in assay [4] it was 19 µM (inactive); in [5], 15.5 µM (inactive).
